Data taken from US7297714B2, “Inhibitors of cathepsin S” (IRM LLC, priority 2003, dated 2007).

Tests used:
Assay type in all cases: biochemical
Cathepsin L = Cathepsin L (Homo sapiens, UniProt P07711); assay: Cathepsin L inhibition assay, selectivity for cathepsin S over cathepsin L; conditions: ratio of cathepsin L inhibition constant to cathepsin S inhibition constant
Experimental: (§1) The optimal substrate for cathepsin L, acetyl-histidine-lysine-phenylalanine-lysine-amino carbamoyl coumarin, was identified from screening a combinatorial library of fluorogenic peptide substrates (Harris, J. L., B. J. Backes, et al.; Proc Natl Acad Sci USA 2000, 97(14), 7754-9). Kinetic measurements are performed in a total reaction volume of 30 μl in 384-well microtiter plates. Cathepsin L, at a final concentration of 0.1 nM (active site), is incubated with the compounds at twelve varying concentrations in a buffer containing 100 mM NaAc (pH5.5), 1 mM EDTA, 100 mM NaCl, 0.01% Brij-35 for 20 minutes at room temperature. Control reactions in the absence of inhibitor are performed in replicates of 24. The reactions are initiated by adding the substrate, acetyl-histidine-lysine-phenylalanine-lysine-amino carbamoyl coumarin, to a final concentration of 20 μM. The rate of substrate hydrolysis is measured by monitoring the increase in fluorescence at an excitation wavelength of 380 nm and an emission wavelength of 450 nm that results from cleavage of the aniline bond in the substrate by the enzyme. The apparent inhibition constants for the compounds are determined from the enzyme progress curves (Kuzmic, P., K. C. Elrod, et al., Anal Biochem 2000, 286(1), 45-50) and are then used to calculate the inhibition constants for competitive inhibitors.
(§2) Selectivity for cathepsin S in the presence of cathepsin isozymes was determined by the ratio of the cathepsin isozyme inhibition constant of a compound of the present invention to the cathepsin S inhibition constant of the same compound. Preferred compounds of the present invention selective for cathepsin S have ratios of greater than 10. More preferred compounds of the present invention selective for cathepsin S have ratios of greater than 100. Most preferred compounds of the present invention selective for cathepsin S have ratios of greater than 1000.

Caspase 3 = target: T1, Caspase 3 (Homo sapiens, UniProt P42574); assay: Inhibition Assay for Caspase 3; conditions: Caspase-3 inhibition constant; pH7.4; read-out: Ki Cas-3
T1 sequence (P42574 29-175 limits assumed): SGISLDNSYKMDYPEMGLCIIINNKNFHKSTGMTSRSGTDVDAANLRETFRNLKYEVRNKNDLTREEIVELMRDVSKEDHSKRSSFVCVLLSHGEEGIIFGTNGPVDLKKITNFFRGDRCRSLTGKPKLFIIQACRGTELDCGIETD
T1 sequence (P42574 176-277 limits assumed): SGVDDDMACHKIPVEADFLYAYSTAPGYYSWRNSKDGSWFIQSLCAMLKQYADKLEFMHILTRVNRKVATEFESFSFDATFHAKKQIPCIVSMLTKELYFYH
Experimental: The widely used substrate for caspase 3, acetyl-aspartate-glutamate-valine-aspartic acid-amino carbamoyl coumarin, was used. Kinetic measurements are performed in a total reaction volume of 30 μl in 384-well microtiter plates. Caspase 3, at a final concentration of 0.2-1 nM (active site), is incubated with the compounds at twelve varying concentrations in a buffer containing 20 mM Hepes (pH7.4), 1 mM EDTA, 100 mM NaCl, 0.1% CHAPS, 10% sucrose, 10 mM DTT for 20 minutes at room temperature. Control reactions in the absence of inhibitor are performed in replicates of 12. The reactions are initiated by adding the substrate to a final concentration of 2 μM. The rate of substrate hydrolysis is measured by monitoring the increase in fluorescence at an excitation wavelength of 380 nm and an emission wavelength of 450 nm that results from cleavage of the aniline bond in the substrate by the enzyme. The apparent inhibition constants for the compounds are determined from the enzyme progress curves (Kuzmic, Elrod et al. 2000) and are then used to calculate the inhibition constants for competitive inhibitors (Km=9.71 μM).

Cathepsin K = target: T2, Cathepsin K (Homo sapiens, UniProt P43235); assay: Cathepsin K inhibition assay, selectivity for cathepsin S over cathepsin K; conditions: ratio of cathepsin K inhibition constant to cathepsin S inhibition constant
T2 sequence (P43235 115-329): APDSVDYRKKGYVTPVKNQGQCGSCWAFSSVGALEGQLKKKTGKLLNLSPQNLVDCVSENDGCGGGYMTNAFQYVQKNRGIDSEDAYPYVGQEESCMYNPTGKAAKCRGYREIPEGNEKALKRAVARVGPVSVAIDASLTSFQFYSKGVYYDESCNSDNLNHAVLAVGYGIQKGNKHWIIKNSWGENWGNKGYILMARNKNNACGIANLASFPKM
Experimental: as §1, with “cathepsin K, acetyl-lysine-histidine-proline-lysine-amino” for “cathepsin L, acetyl-histidine-lysine-phenylalanine-lysine-amino”, “et al.,” for “et al.;”, “Cathepsin K,” for “Cathepsin L,”, “of 3.5” for “of 0.1”, “substrate, acetyl-lysine-histidine-proline-lysine-amino” for “substrate, acetyl-histidine-lysine-phenylalanine-lysine-amino”, “of 40” for “of 20”
as §2

Cathepsin B = Cathepsin B (Homo sapiens, UniProt P07858); assay: Cathepsin B inhibition assay, selectivity for cathepsin S over cathepsin B; conditions: ratio of cathepsin B inhibition constant to cathepsin S inhibition constant
Experimental: The optimal substrate for cathepsin B, acetyl-histidine-proline-valine-lysine-amino carbamoyl coumarin, was identified from screening a combinatorial library of fluorogenic peptide substrates (Harris, J. L., B. J. Backes, et al., Proc Natl Acad Sci US A 2000, 97(14), 7754-9). Kinetic measurements are performed in a total reaction volume of 30 μl in 384-well microtiter plates. Cathepsin B, at a final concentration of 1.5 nM (active site), is incubated with the compounds at twelve varying concentrations in a buffer containing 100 mM NaAc (pH5.5), 1 mM EDTA, 100 mM NaCl, 0.01% Brij-35 for 20 minutes at room temperature. Control reactions in the absence of inhibitor are performed in replicates of 24. The reactions are initiated by adding the substrate, acetyl-histidine-proline-valine-lysine-amino carbamoyl coumarin, to a final concentration of 10 μM. The rate of substrate hydrolysis is measured by monitoring the increase in fluorescence at an excitation wavelength of 380 nm and an emission wavelength of 450 nm that results from cleavage of the aniline bond in the substrate by the enzyme. The apparent inhibition constants for the compounds are determined from the enzyme progress curves (Kuzmic, P., K. C. Elrod, et al., Anal Biochem 2000, 286(1), 45-50) and are then used to calculate the inhibition constants for competitive inhibitors.
as §2

Chain of Cathepsin L (P07711 114-333, species assumed): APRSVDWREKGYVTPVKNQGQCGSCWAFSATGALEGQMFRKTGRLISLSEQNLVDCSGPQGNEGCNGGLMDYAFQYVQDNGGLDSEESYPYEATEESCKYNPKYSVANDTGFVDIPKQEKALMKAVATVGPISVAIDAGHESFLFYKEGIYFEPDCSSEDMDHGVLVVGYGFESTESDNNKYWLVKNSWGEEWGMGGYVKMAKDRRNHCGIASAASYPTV

Row | SMILES | Selectivity for Cat. S over Cat. L (Cathepsin L) | Ki (Caspase 3) [µM] | Selectivity for Cat. S over Cat. K (Cathepsin K) | Selectivity for Cat. S over Cat. B (Cathepsin B)
1 | O=C1C[C@H](NC(=O)[C@H](CC2CCCCC2)NS(=O)(=O)c2cccc(OC(F)(F)F)c2)C(O)O1 (stereo partly drawn) [Example 7, (3S)-[3-Cyclohexyl-(2S)-(3-trifluoromethoxy-benzenesulfonylamino)-propionylamino]-4-oxo-butyric acid] | ++ (++, >100) | > 10 | ++ (++, >100) | +++ (+++, >1000)
2 | O=C1C[C@H](NC(=O)[C@H](CC2CCCC2)NC(=O)N2CCOCC2)C(O)O1 (stereo partly drawn) [Example 2, (3S)-{3-Cyclopentyl-(2S)-[(morpholine-4-carbonyl)-amino]-propionylamino}-4-oxo-butyric acid] | ++ (++, >100) | > 10 | ++ (++, >100) | +++ (+++, >1000)
3 | O=C1C[C@H](NC(=O)[C@@H](CC(=O)N2CCOCC2)CC2CCCCC2)C(O)O1 (stereo partly drawn) [Example 6, (3S)-{(2R)-Cyclohexylmethyl-4-morpholin-4-yl-4-oxo-butyrylamino}-4-oxo-butyric acid] | ++ (++, >100) | > 10 | ++ (++, >100) | +++ (+++, >1000)
4 | O=C1C[C@H](NC(=O)O[C@@H](CC2CCCCC2)C(=O)N2CCOCC2)C(O)O1 (stereo partly drawn) [Example 10, (3S)-[2-cyclohexyl-(1S)-(morpholin-4-carbonyl)-ethoxycarbonylamino]-4-oxo-butyric acid] | +++ (+++, >1000) | > 100 | ++ (++, >100) | +++ (+++, >1000)
5 | O=C1C[C@H](NC(=O)[C@H](CC2CCCCC2)OC(=O)N2CCOCC2)C(O)O1 (stereo partly drawn) [Example 3, (3S)-{3-cyclohexyl-(2S)-(morpholine-4-carbonyloxy)-propionylamino}-4-oxo-butyric acid] | + (+, >10) | > 10 | + (+, >10) | +++ (+++, >1000)
6 | O=C1C[C@H](NC(=O)[C@H](CC2CCCC2)NC(=O)c2ccc(-c3cccc(F)c3)o2)C(O)O1 (stereo partly drawn) [Example 1, (3S)-(3-Cyclopentyl-(2S)-{[5-(3-fluoro-phenyl)-furan-2-carbonyl]-amino}-propionylamino)-4-oxo-butyric acid] | ++ (++, >100) | > 1 | + (+, >10) | +++ (+++, >1000)
7 | O=C1C[C@H](NC(=O)O[C@@H](CC2CCCC2)Cn2cnc3cc(Cl)c(Cl)cc32)C(O)O1 (stereo partly drawn) [Example 5, (3S)-[(1S)-Cyclopentylmethyl-2-(5,6-dichloro-benzoimidazol-1-yl)-ethoxycarbonylamino]-4-oxo-butyric acid] | + (+, >10) | > 10 | + (+, >10) | +++ (+++, >1000)
8 | O=C1C[C@H](NC(=O)[C@H](CC2CCCC2)NS(=O)(=O)c2cccc(OC(F)(F)F)c2)C(O)O1 (stereo partly drawn) [Example 8, (3S)-[3-Cyclopentyl-(2S)-(3-trifluoromethoxy-benzenesulfonylamino)-propionylamino]-4-oxo-butyric acid] | ++ (++, >100) | > 1 | ++ (++, >100) | +++ (+++, >1000)
9 | CC(C)(C)C[C@H](OC(=O)N[C@H]1CC(=O)OC1O)C(=O)N1CCOCC1 (stereo partly drawn) [Example 9, (3S)-[3,3-Dimethyl-(1S)-(morpholine-4-carbonyl)-butoxycarbonylamino]-4-oxo-butyric acid] | ++ (++, >100) | > 100 |  | ++ (++, >100)
10 | O=C[C@H](CC(=O)O)NC(=O)[C@@H](CC(=O)N1CCOCC1)CC1CCCC1 [Example 4, (3S)-[(2R)-Cyclopentylmethyl-4-morpholin-4-yl-4-oxo-butyrylamino]-4-oxo-butyric acid] | ++ (++, >100) | > 10 | + (+, >10) | +++ (+++, >1000)
